pIC50: −log10 of the molar value.
Assays:
[1] = biological target: KRas^G13D (Homo sapiens, UniProt P01116, G13D); experiment: biochemical
Description: (§6) The ability of a compound to bind to KRas was measured using a TR-FRET displacement assay. […] After a 60-minute incubation at room temperature, the reaction was measured using a BMG LABTECH CLARIO star Plus via TR-FRET. […] The POC values were fit to a 4-parameter IC50 equation and the IC50 value reported.

[2] = biological target: T1, KRas^WT (Homo sapiens, UniProt P01116); experiment: KRas binding assay (TR-FRET displacement of Cy5 labelled tracer)
T1 construct: […]; biotin (biotinylated); purchased Accelegan Inc
Description: as §6

[3] = biological target: KRas^Q61H (Homo sapiens, UniProt P01116, Q61H); experiment: biochemical
Description: as §6

[4] = biological target: KRas^G12C (Homo sapiens, UniProt P01116, G12C); experiment: biochemical
Sequence of KRas^G12C (P01116 1-169 isoform P01116-2 G12C): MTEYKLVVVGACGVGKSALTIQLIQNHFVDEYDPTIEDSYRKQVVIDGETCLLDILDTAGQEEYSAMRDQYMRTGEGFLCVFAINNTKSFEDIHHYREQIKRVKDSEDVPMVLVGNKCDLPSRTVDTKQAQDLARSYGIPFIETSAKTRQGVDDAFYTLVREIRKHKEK
Description: as §6

[5] = biological target: T2, KRas^G12D (Homo sapiens, UniProt P01116, G12D); experiment: KRas binding assay (TR-FRET displacement of Cy5 labelled tracer)
T2 construct: […]; biotin (biotinylated); purchased Accelegan Inc
T2 sequence (P01116 1-169 isoform P01116-2 G12D): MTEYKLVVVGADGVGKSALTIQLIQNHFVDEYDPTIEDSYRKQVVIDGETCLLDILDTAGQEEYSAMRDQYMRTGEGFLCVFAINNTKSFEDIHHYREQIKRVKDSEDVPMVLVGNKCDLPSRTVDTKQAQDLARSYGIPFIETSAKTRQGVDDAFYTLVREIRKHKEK
Description: as §6

[6] = biological target: T3, KRas^G12R (Homo sapiens, UniProt P01116, G12R); experiment: as above
T3 construct: […]; biotin (biotinylated); purchased Accelegan Inc
T3 sequence (P01116 1-169 isoform P01116-2 G12R): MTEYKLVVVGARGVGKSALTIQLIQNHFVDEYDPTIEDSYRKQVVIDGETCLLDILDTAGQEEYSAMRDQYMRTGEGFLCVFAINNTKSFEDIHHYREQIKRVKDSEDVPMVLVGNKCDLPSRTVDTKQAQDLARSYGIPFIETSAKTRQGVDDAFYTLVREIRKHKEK
Description: as §6

[7] = test system: NCI-H460 (Q61H) cells, phospho-ERK; experiment: Inhibition of KRas-mediated phosphorylation of ERK (phospho-ERK/GAPDH antibody detection, LI-COR); type: cell-based; conditions: Homo sapiens, 3 hours
Description: (§1) AsPC-1 (G12D, ATCC CRL-1682), A549 (G12S, ATCC CCL-185), HCT116 (G13D, ATCC CCL-247) cells were grown in DMEM medium supplemented with 10% fetal bovine serum and Penicillin/Streptomycin. NCI-H358 (G12C, ATCC CRL-5807), NCI-H460 (Q61H, ATCC HTB-117), NCI-H727 (G12V, ATCC CRL-5815), MKN1 (WTdep, JCRB JCRB0252), PSN-1 (G12R, ATCC CRM-CRL-3211) cells were grown in RPMI medium supplemented with 10% fetal bovine serum, 10 mM HEPES, 10 mM Sodium Pyruvate, and Penicillin/Streptomycin. Cells were plated in black well clear bottom tissue culture treated 96 well plates (Corning, 3904) at a density of 20,000 cells/well and allowed to attach for 12-14 hours. Diluted compounds were then added in a final concentration of 0.5% DMSO. After 3 hours, 50 μL of 4.0% formaldehyde was added and the plates incubated at room temperature for 20 minutes. The plates were then dumped and permeabilized with 150 μL of ice cold 100% methanol for 10 minutes. Non-specific antibody binding to the plates was blocked using 100 μL Odyssey blocking buffer (LI-COR Biosciences, 927-60010) for 1 hour at room temperature.
(§2) The amount of phospho-ERK was determined using an antibody specific for the phosphorylated form of ERK and compared to the amount of GAPDH. Primary antibodies used for the detection were added as follows: Phospho-ERK (Cell Signaling CS-9101) diluted 1:500 and GAPDH (Millipore MAB374) diluted 1:5000 in Odyssey blocking buffer+0.05% Tween 20. The plates were incubated overnight at 4 C. The plates were washed 3× with 150 uL PBS+0.1% Tween 20.
(§3) Secondary antibodies used to visualize primary antibodies were added as follows: Goat Anti-Rabbit-800 (LI-COR, 926-32211) and Goat Anti-Mouse-680 (LI-COR, 926-68070) diluted 1:800 both in Odyssey blocking buffer+0.05% Tween 20 and were incubated for 1 hour at room temperature. The plates were washed 3× with 150 uL PBS+[…]. Plates were imaged dry on a Li—COR Odyssey CLX plate reader.
(§4) The phospho-ERK (Thr202/Tyr204) signal was normalized to the GAPDH signal for each well and percent of DMSO control values were calculated. IC50 values were generated using a 4-parameter fit of the dose response curve.

[8] = test system: AsPC-1 (G12D) cells, phospho-ERK; experiment: as above; type: cell-based; conditions: Homo sapiens, ASPC1, 3 hours
Description: as §1, §2, §3, §4

[9] = test system: NCI-H727 (G12V) cells, phospho-ERK; experiment: as above; type: cell-based; conditions: Homo sapiens, 3 hours
Description: as §1, §2, §3, §4

[10] = biological target: T4, KRas^G12S (Homo sapiens, UniProt P01116, G12S); experiment: KRas binding assay (TR-FRET displacement of Cy5 labelled tracer)
T4 construct: […]; biotin (biotinylated); purchased Accelegan Inc
T4 sequence (P01116 1-169 isoform P01116-2 G12S): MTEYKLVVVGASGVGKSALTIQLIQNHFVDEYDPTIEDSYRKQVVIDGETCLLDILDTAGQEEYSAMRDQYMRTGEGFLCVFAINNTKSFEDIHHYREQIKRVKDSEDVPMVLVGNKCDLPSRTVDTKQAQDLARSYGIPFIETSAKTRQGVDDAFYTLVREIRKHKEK
Description: as §6

[11] = biological target: T5, KRas^G12V (Homo sapiens, UniProt P01116, G12V); experiment: as above
T5 construct: […]; biotin (biotinylated); purchased Accelegan Inc
T5 sequence (P01116 1-169 isoform P01116-2 G12V): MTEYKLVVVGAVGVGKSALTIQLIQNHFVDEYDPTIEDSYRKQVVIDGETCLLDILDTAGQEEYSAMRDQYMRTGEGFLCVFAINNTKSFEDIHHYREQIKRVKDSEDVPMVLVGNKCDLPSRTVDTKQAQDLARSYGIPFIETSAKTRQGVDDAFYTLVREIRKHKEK
Description: as §6

[12] = biological target: T6, KRas^G12A (Homo sapiens, UniProt P01116, G12A); experiment: as above
T6 construct: […]; biotin (biotinylated); purchased Accelegan Inc
T6 sequence (P01116 1-169 isoform P01116-2 G12A): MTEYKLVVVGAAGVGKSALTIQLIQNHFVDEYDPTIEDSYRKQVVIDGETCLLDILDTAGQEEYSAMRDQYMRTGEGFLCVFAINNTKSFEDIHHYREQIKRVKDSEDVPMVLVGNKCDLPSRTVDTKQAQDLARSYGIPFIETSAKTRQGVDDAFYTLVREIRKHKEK
Description: as §6

[13] = test system: MKN1 cells, pERK; experiment: Inhibition of KRas phosphorylation of ERK (Cisbio HTRF Advanced pERK assay); type: cell-based; conditions: Homo sapiens, MKN-1, 3 h, read-out: Inhibition (HTRF IC50 nM) of KRas-mediated Phosphorylation of ERK, MKN1
Method in brief: (§5)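 Overnight-plated cells (RPMI, 10% FBS); compound 3 h, 37 °C, 10 uM top, 3-fold x10, 0.8% DMSO; min ctrl trametinib 0.2 uM; lysis 40 min 4 °C; pERK by HTRF, 2 h RT.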

[14] = test system: PSN1 cells, pERK; experiment: as above; type: cell-based; conditions: Homo sapiens, PSN1, 3 h, read-out: Inhibition (HTRF IC50 nM) of KRas-mediated Phosphorylation of ERK, PSN1
Method in brief: as §5

Sequence of KRas^G13D (P01116 1-169 isoform P01116-2 G13D): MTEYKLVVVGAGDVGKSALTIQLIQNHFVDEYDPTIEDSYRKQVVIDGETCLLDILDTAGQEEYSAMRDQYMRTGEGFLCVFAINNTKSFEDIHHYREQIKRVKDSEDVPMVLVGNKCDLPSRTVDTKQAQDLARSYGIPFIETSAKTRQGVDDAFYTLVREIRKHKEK
T1 sequence (P01116 1-169 isoform P01116-2): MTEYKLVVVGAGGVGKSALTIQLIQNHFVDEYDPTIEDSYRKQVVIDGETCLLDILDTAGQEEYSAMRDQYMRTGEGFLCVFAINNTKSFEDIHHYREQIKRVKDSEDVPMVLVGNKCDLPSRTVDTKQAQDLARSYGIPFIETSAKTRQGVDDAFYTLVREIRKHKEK
Sequence of KRas^Q61H (P01116 1-169 isoform P01116-2 Q61H): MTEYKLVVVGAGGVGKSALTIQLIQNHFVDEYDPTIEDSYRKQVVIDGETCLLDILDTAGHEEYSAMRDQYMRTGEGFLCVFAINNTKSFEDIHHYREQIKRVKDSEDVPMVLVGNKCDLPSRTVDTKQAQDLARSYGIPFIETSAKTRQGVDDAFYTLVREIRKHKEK

CCc1c(F)ccc2cc(O)cc(N3CCc4c(nc(OC[C@@]56CCCN5C[C@H](F)C6)nc4N4CCC(c5[nH]ncc5N)C4)C3)c12 (stereo partly drawn) [Example 26, 4-(4-(3-(4-amino-1H-pyrazol-5-yl)pyrrolidin-1-yl)-2-(((2R,7aS)-2-fluorohexahydro-1H-pyrrolizin-7a-yl)methoxy)-5,6-dihydropyrido[3,4-d]pyrimidin-7(8H)-yl)-5-ethyl-6-fluoronaphthalen-2-ol]
pIC50 [1]: 7.47 | pIC50 [2]: 7.62 | pIC50 [3]: 7.66 | pIC50 [4]: 8.15 | pIC50 [5]: 6.96 | pIC50 [6]: 8.30 | IC50 [7]: 3260 nM | IC50 [8]: 10000 nM | IC50 [9]: 3120 nM | pIC50 [10]: 8.00 | pIC50 [11]: 8.40 | pIC50 [12]: 8.15

CCc1c(F)ccc2cc(O)cc(N3CCc4c(nc(OC[C@@]56CCCN5C[C@H](F)C6)nc4N4CCCCC(S(C)(=O)=O)C4)C3)c12 (stereo partly drawn) [Example 28, 5-ethyl-6-fluoro-4-(2-(((2R,7aS)-2-fluorohexahydro-1H-pyrrolizin-7a-yl)methoxy)-4-(3-(methylsulfonyl)azepan-1-yl)-5,6-dihydropyrido[3,4-d]pyrimidin-7(8H)-yl)naphthalen-2-ol]
IC50 [13]: 36 nM | IC50 [14]: ≥ 10000 nM | pIC50 [5]: ≥ 8.70 | pIC50 [6]: ≥ 8.70 | IC50 [7]: 494 nM | IC50 [8]: 1010 nM | IC50 [9]: 987 nM | pIC50 [11]: ≥ 8.70

CCc1c(F)ccc2cc(O)cc(N3CCc4c(nc(OC[C@@]56CCCN5C[C@H](F)C6)nc4N4CCCn5nc(N)cc5C4)C3)c12 [Example 18, 4-(4-(2-amino-7,8-dihydro-4H-pyrazolo[1,5-a][1,4]diazepin-5(6H)-yl)-2-(((2R,7aS)-2-fluorohexahydro-1H-pyrrolizin-7a-yl)methoxy)-5,6-dihydropyrido[3,4-d]pyrimidin-7(8H)-yl)-5-ethyl-6-fluoronaphthalen-2-ol]
IC50 [13]: 22 nM | IC50 [14]: ≥ 10000 nM | pIC50 [5]: ≥ 8.70 | pIC50 [6]: ≥ 8.70 | IC50 [7]: 317 nM | IC50 [8]: 182 nM | IC50 [9]: 503 nM | pIC50 [11]: ≥ 8.70

CCc1c(F)ccc2cc(O)cc(N3CCc4c(nc(OC[C@@]56CCCN5C[C@H](F)C6)nc4N4CCCC(O)(C(F)F)C4)C3)c12 (stereo partly drawn) [Example 32, 3-(difluoromethyl)-1-(7-(8-ethyl-7-fluoro-3-hydroxynaphthalen-1-yl)-2-(((2R,7aS)-2-fluorohexahydro-1H-pyrrolizin-7a-yl)methoxy)-5,6,7,8-tetrahydropyrido[3,4-d]pyrimidin-4-yl)piperidin-3-ol]
IC50 [13]: 31 nM | IC50 [14]: 1540 nM | pIC50 [5]: ≥ 8.70 | pIC50 [6]: 8.52 | IC50 [7]: 381 nM | IC50 [8]: 624 nM | IC50 [9]: 1090 nM | pIC50 [11]: ≥ 8.70

CCc1c(F)ccc2cc(O)cc(N3CCc4c(nc(OC[C@@]56CCCN5C[C@H](F)C6)nc4N4CCCC(O)C4)C3)c12 (stereo partly drawn) [Example 27, 1-(7-(8-ethyl-7-fluoro-3-hydroxynaphthalen-1-yl)-2-(((2R,7aS)-2-fluorohexahydro-1H-pyrrolizin-7a-yl)methoxy)-5,6,7,8-tetrahydropyrido[3,4-d]pyrimidin-4-yl)piperidin-3-ol]
IC50 [13]: 9 nM | IC50 [14]: 2720 nM | pIC50 [5]: ≥ 8.70 | pIC50 [6]: ≥ 8.70 | IC50 [7]: 282 nM | IC50 [8]: 808 nM | IC50 [9]: 549 nM | pIC50 [11]: ≥ 8.70

CCc1c(F)ccc2cc(O)cc(N3CCc4c(nc(OC[C@@]56CCCN5C[C@H](F)C6)nc4N4CCCC5(CC(=O)N5)C4)C3)c12 (stereo partly drawn) [Example 21, 6-(7-(8-ethyl-7-fluoro-3-hydroxynaphthalen-1-yl)-2-(((2R,7aS)-2-fluorohexahydro-1H-pyrrolizin-7a-yl)methoxy)-5,6,7,8-tetrahydropyrido[3,4-d]pyrimidin-4-yl)-1,6-diazaspiro[3.5]nonan-2-one]
IC50 [13]: 9 nM | IC50 [14]: 646 nM | pIC50 [5]: ≥ 8.70 | pIC50 [6]: ≥ 8.70 | IC50 [7]: 202 nM | IC50 [8]: 204 nM | IC50 [9]: 466 nM | pIC50 [11]: ≥ 8.70

CCc1c(F)ccc2cc(O)cc(N3CCc4c(nc(OC[C@@]56CCCN5C[C@H](F)C6)nc4N4CCC(O)C(CO)CC4)C3)c12 (stereo partly drawn) [Example 33, 1-(7-(8-ethyl-7-fluoro-3-hydroxynaphthalen-1-yl)-2-(((2R,7aS)-2-fluorohexahydro-1H-pyrrolizin-7a-yl)methoxy)-5,6,7,8-tetrahydropyrido[3,4-d]pyrimidin-4-yl)-5-(hydroxymethyl)azepan-4-ol]
IC50 [13]: 11 nM | IC50 [14]: ≥ 10000 nM | pIC50 [5]: 8.30 | pIC50 [6]: ≥ 8.70 | IC50 [7]: 398 nM | IC50 [8]: 1360 nM | IC50 [9]: 1860 nM | pIC50 [11]: ≥ 8.70

CCc1c(F)ccc2cc(O)cc(N3CCc4c(nc(OC[C@@]56CCCN5C[C@H](F)C6)nc4N4CCCCCC(S(C)(=O)=O)C4)C3)c12 (stereo partly drawn) [Example 36, 5-ethyl-6-fluoro-4-(2-(((2R,7aS)-2-fluorotetrahydro-1H-pyrrolizin-7a(5H)-yl)methoxy)-4-(3-(methylsulfonyl)azocan-1-yl)-5,8-dihydropyrido[3,4-d]pyrimidin-7(6H)-yl)naphthalen-2-ol]
IC50 [13]: 37 nM | IC50 [14]: ≥ 10000 nM | pIC50 [5]: 8.30 | pIC50 [6]: 8.30 | IC50 [7]: 731 nM | IC50 [8]: 1760 nM | IC50 [9]: 1730 nM | pIC50 [11]: ≥ 8.70

CCc1c(F)ccc2cc(O)cc(N3CCc4c(nc(OC[C@@]56CCCN5C[C@H](F)C6)nc4NCc4ccc5nncn5c4)C3)c12 [Example 31, 4-(4-(([1,2,4]triazolo[4,3-a]pyridin-6-ylmethyl)amino)-2-(((2R,7aS)-2-fluorohexahydro-1H-pyrrolizin-7a-yl)methoxy)-5,6-dihydropyrido[3,4-d]pyrimidin-7(8H)-yl)-5-ethyl-6-fluoronaphthalen-2-ol]
IC50 [13]: 637 nM | IC50 [14]: ≥ 10000 nM | pIC50 [5]: 7.51 | pIC50 [6]: ≥ 8.70 | IC50 [7]: > 10000 nM | IC50 [8]: 3540 nM | IC50 [9]: 3320 nM | pIC50 [11]: ≥ 8.70

CCc1c(F)ccc2cc(O)cc(N3CCc4c(nc(OC[C@@]56CCCN5C[C@H](F)C6)nc4N4CC5CC(O)CC4C5)C3)c12 (stereo partly drawn) [Example 35, 6-(7-(8-ethyl-7-fluoro-3-hydroxynaphthalen-1-yl)-2-(((2R,7aS)-2-fluorohexahydro-1H-pyrrolizin-7a-yl)methoxy)-5,6,7,8-tetrahydropyrido[3,4-d]pyrimidin-4-yl)-6-azabicyclo[3.2.1]octan-3-ol]
IC50 [13]: 159 nM | IC50 [14]: 5720 nM | pIC50 [5]: 8.15 | pIC50 [6]: ≥ 8.70 | IC50 [7]: 1430 nM | IC50 [8]: 2360 nM | IC50 [9]: 1620 nM | pIC50 [11]: 7.28

— US12421253B2 (Mirati Therapeutics, Inc., priority 2020, dated 2025)
